ChEMBL document CHEMBL1201862, “PubChem BioAssay data set” (2004)
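96-well plates; 48 h exposure; 5 concentrations. Endpoints by linear interpolation between flanking doses. Not reached: highest tested concentration assigned. GI50 is the concentration that inhibits growth by half.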 The source made the active and inactive calls. No stated cut-off is given here; in the data, active = GI50 up to about 1.1 µM and inactive = higher.

Tests used:
Assay in all cases: NCI-60 cell line screen, 48 h
Hs-578T = system: Hs-578T
MDA-MB-435 = system: MDA-MB-435
DU-145 = system: DU-145
SW-620 = system: SW-620
SN12C = system: SN12C
SK-MEL-5 = system: SK-MEL-5
HL-60 = system: HL-60
HT-29 = system: HT-29
MDA-N = system: MDA-N
SF-295 = system: SF-295
TK-10 = system: TK-10
MCF7 = system: MCF7
UACC-257 = system: UACC-257
PC-3 = system: PC-3
NCI-H522 = system: NCI-H522
SK-OV-3 = system: SK-OV-3
ACHN = system: ACHN
CAKI-1 = system: CAKI-1
M14 = system: M14

Measured: GI50

O=P(O)(O)c1ccc2c(c1)OCCOCCOCCOCCO2
inactive: Hs-578T > 100 µM | MDA-MB-435 > 100 µM | DU-145 > 100 µM | SW-620 > 100 µM | SN12C > 100 µM | SK-MEL-5 > 100 µM | HL-60 > 100 µM | HT-29 > 100 µM | MDA-N > 100 µM | SF-295 > 100 µM | TK-10 > 100 µM | MCF7 > 100 µM | UACC-257 > 100 µM | PC-3 > 100 µM | NCI-H522 > 100 µM | SK-OV-3 > 100 µM | ACHN > 100 µM

NCCCN1CCN(CCCNc2ccc3nnn4c5ccccc5c(=O)c2c34)CC1
inactive: Hs-578T 27.4 µM | MDA-MB-435 21.6 µM | DU-145 14.9 µM | SW-620 11 µM | SN12C 9.02 µM | SK-MEL-5 13.5 µM | HL-60 8.59 µM | HT-29 13.3 µM | MDA-N 16.2 µM | CAKI-1 14.6 µM | SF-295 16.8 µM | TK-10 24.9 µM | M14 17.6 µM | MCF7 16.2 µM | UACC-257 28.2 µM | PC-3 12.5 µM | NCI-H522 11.3 µM | SK-OV-3 57.4 µM | ACHN 12.4 µM

CNC1=C/C(=N/C2=CC(=N/C(=C\C#N)C(C)(C)O)/OC2(C)C)OC1(C)C
inactive: Hs-578T 35.1 µM | MDA-MB-435 22.6 µM | DU-145 12 µM | SW-620 5.4 µM | SN12C 14.5 µM | SK-MEL-5 14.9 µM | HL-60 2.01 µM | HT-29 11.4 µM | MDA-N 21.3 µM | CAKI-1 7.82 µM | SF-295 23.9 µM | TK-10 21.3 µM | M14 11.8 µM | MCF7 5.82 µM | UACC-257 43.3 µM | PC-3 13.2 µM | NCI-H522 13 µM | SK-OV-3 17.1 µM | ACHN 4.32 µM

COc1ccc(-n2sc3ncccc3c2=O)cc1
inactive: Hs-578T 26.3 µM | MDA-MB-435 28.8 µM | DU-145 39.4 µM | SW-620 32.1 µM | SN12C 38.2 µM | SK-MEL-5 20 µM | HL-60 3.58 µM | HT-29 20.8 µM | MDA-N 21.5 µM | SF-295 > 100 µM | TK-10 18.9 µM | M14 21.9 µM | MCF7 19.9 µM | UACC-257 18.7 µM | PC-3 23.8 µM | NCI-H522 17.5 µM | SK-OV-3 > 100 µM | ACHN 19.4 µM
